In PubChem BioAssay (NCI):
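Abbreviation: GI50, concentration required for 50% inhibition of growth. At the TGI there is no net growth.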

What was measured:
Assay in all cases: DTP human tumour cell line panel, 384-well format
786-0 renal = system: 786-0 renal
A498 renal = system: A498 renal
A549 NSCLC = system: A549 NSCLC
ACHN renal = system: ACHN renal
BT-549 breast = system: BT-549 breast
CAKI-1 renal = system: CAKI-1 renal
COLO 205 colon = system: COLO 205 colon
DU-145 prostate = system: DU-145 prostate
EKVX NSCLC = system: EKVX NSCLC
HCC-2998 colon = system: HCC-2998 colon
HCT-15 colon = system: HCT-15 colon
HL-60(TB) leukemia = system: HL-60(TB) leukemia
HOP-62 NSCLC = system: HOP-62 NSCLC
HOP-92 NSCLC = system: HOP-92 NSCLC
HS 578T breast = system: HS 578T breast
HT29 colon = system: HT29 colon
IGROV1 ovarian = system: IGROV1 ovarian
K-562 leukemia = system: K-562 leukemia
KM12 colon = system: KM12 colon
LOX IMVI melanoma = system: LOX IMVI melanoma
M14 melanoma = system: M14 melanoma
MALME-3M melanoma = system: MALME-3M melanoma
MCF7 breast = system: MCF7 breast
MDA-MB-231 breast = system: MDA-MB-231 breast
MDA-MB-435 melanoma = system: MDA-MB-435 melanoma
MDA-MB-468 breast = system: MDA-MB-468 breast
MOLT-4 leukemia = system: MOLT-4 leukemia
NCI-H226 lung = system: NCI-H226 lung
NCI-H23 lung = system: NCI-H23 lung
NCI-H322M lung = system: NCI-H322M lung
NCI-H460 NSCLC = system: NCI-H460 NSCLC
NCI-H522 lung = system: NCI-H522 lung
NCI/ADR-RES ovarian = system: NCI/ADR-RES ovarian
OVCAR-3 ovarian = system: OVCAR-3 ovarian
OVCAR-4 ovarian = system: OVCAR-4 ovarian
OVCAR-5 ovarian = system: OVCAR-5 ovarian
OVCAR-8 ovarian = system: OVCAR-8 ovarian
PC-3 prostate = system: PC-3 prostate
RPMI-8226 leukemia = system: RPMI-8226 leukemia
RXF 393 renal = system: RXF 393 renal
SF-268 CNS = system: SF-268 CNS
SF-295 CNS = system: SF-295 CNS
SF-539 CNS = system: SF-539 CNS
SK-MEL-28 melanoma = system: SK-MEL-28 melanoma
SK-MEL-5 melanoma = system: SK-MEL-5 melanoma
SK-OV-3 ovarian = system: SK-OV-3 ovarian
SN12C renal = system: SN12C renal
SNB-19 CNS = system: SNB-19 CNS
SNB-75 CNS = system: SNB-75 CNS
SR leukemia = system: SR leukemia
SW-620 colon = system: SW-620 colon
T-47D breast = system: T-47D breast
TK-10 renal = system: TK-10 renal
U251 glioblastoma = system: U251 glioblastoma
UACC-257 melanoma = system: UACC-257 melanoma
UACC-62 melanoma = system: UACC-62 melanoma
UO-31 renal = system: UO-31 renal

Which results are given for `C[C@@]1(C(=O)Nc2ccc(F)nc2)CCCN1c1nc(Nc2cc(C3CC3)[nH]n2)c2cccn2n1`?
GI50 ([…]-0 renal): 2.12 µM; TGI (786-0 renal): 11.3 µM; GI50 (A498 renal): 1.72 µM; TGI (A498 renal): 17.1 µM; GI50 (A549 NSCLC): 0.63 µM; TGI (A549 NSCLC): 15.4 µM; GI50 (ACHN renal): 2.43 µM; TGI (ACHN renal): 16 µM; GI50 (BT-549 breast): 1.71 µM; TGI (BT-549 breast): 7.62 µM; GI50 (CAKI-1 renal): 1.3 µM; TGI (CAKI-1 renal): 5.28 µM; GI50 (COLO 205 colon): < 0.01 µM; TGI (COLO 205 colon): 0.189 µM; GI50 (DU-145 prostate): 0.995 µM; TGI (DU-145 prostate): 12.5 µM; GI50 (EKVX NSCLC): 0.681 µM; TGI (EKVX NSCLC): 9.59 µM; GI50 (HCC-2998 colon): 10.6 µM; TGI (HCC-2998 colon): 22.7 µM; GI50 (HCT-15 colon): 0.703 µM; TGI (HCT-15 colon): 12.2 µM; GI50 (HL-60(TB) leukemia): < 0.01 µM; TGI (HL-60(TB) leukemia): 0.126 µM; GI50 (HOP-62 NSCLC): 1.87 µM; TGI (HOP-62 NSCLC): 13.2 µM; GI50 (HOP-92 NSCLC): 0.289 µM; TGI (HOP-92 NSCLC): 2.68 µM; GI50 (HS 578T breast): 1.51 µM; TGI (HS 578T breast): 3.8 µM; GI50 (HT29 colon): < 0.01 µM; TGI (HT29 colon): 10.5 µM; GI50 (IGROV1 ovarian): 1.72 µM; TGI (IGROV1 ovarian): 7.19 µM; GI50 (K-562 leukemia): 3.81 µM; TGI (K-562 leukemia): 15.4 µM; GI50 (KM12 colon): 0.03 µM; TGI (KM12 colon): 0.204 µM; GI50 (LOX IMVI melanoma): 1.93 µM; TGI (LOX IMVI melanoma): 13 µM; GI50 (M14 melanoma): 1.7 µM; TGI (M14 melanoma): 16.8 µM; GI50 (MALME-3M melanoma): 0.356 µM; TGI (MALME-3M melanoma): 16.6 µM; GI50 (MCF7 breast): 0.0388 µM; TGI (MCF7 breast): 12.4 µM; GI50 (MDA-MB-231 breast): 1.58 µM; TGI (MDA-MB-231 breast): 12.5 µM; GI50 (MDA-MB-435 melanoma): 14.4 µM; TGI (MDA-MB-435 melanoma): 27.6 µM; GI50 (MDA-MB-468 breast): 0.246 µM; TGI (MDA-MB-468 breast): 0.561 µM; GI50 (MOLT-4 leukemia): 0.224 µM; TGI (MOLT-4 leukemia): 0.439 µM; GI50 (NCI-H226 lung): 0.557 µM; TGI (NCI-H226 lung): 7.05 µM; GI50 (NCI-H23 lung): 0.223 µM; TGI (NCI-H23 lung): 3.87 µM; GI50 (NCI-H322M lung): 3.87 µM; TGI (NCI-H322M lung): 20.1 µM; GI50 (NCI-H460 NSCLC): 0.239 µM; TGI (NCI-H460 NSCLC): 1.17 µM; GI50 (NCI-H522 lung): 0.864 µM; TGI (NCI-H522 lung): 7.46 µM; GI50 (NCI/ADR-RES ovarian): 2.36 µM; TGI (NCI/ADR-RES ovarian): 10.7 µM; GI50 (OVCAR-3 ovarian): 0.842 µM; TGI (OVCAR-3 ovarian): 9.82 µM; GI50 (OVCAR-4 ovarian): 0.935 µM; TGI (OVCAR-4 ovarian): 4.21 µM; GI50 (OVCAR-5 ovarian): 1.5 µM; TGI (OVCAR-5 ovarian): 8.62 µM; GI50 (OVCAR-8 ovarian): 4.09 µM; TGI (OVCAR-8 ovarian): 18.7 µM; GI50 (PC-3 prostate): 2.67 µM; TGI (PC-3 prostate): 14.4 µM; GI50 (RPMI-8226 leukemia): 0.201 µM; TGI (RPMI-8226 leukemia): 0.491 µM; GI50 (RXF 393 renal): 2.25 µM; TGI (RXF 393 renal): 12.7 µM; GI50 (SF-268 CNS): 1.44 µM; TGI (SF-268 CNS): 6.55 µM; GI50 (SF-295 CNS): 0.837 µM; TGI (SF-295 CNS): 4.19 µM; GI50 (SF-539 CNS): 1.91 µM; TGI (SF-539 CNS): 11 µM; GI50 (SK-MEL-28 melanoma): 10.6 µM; TGI (SK-MEL-28 melanoma): 22.7 µM; GI50 (SK-MEL-5 melanoma): 1.78 µM; TGI (SK-MEL-5 melanoma): 15.9 µM; GI50 (SK-OV-3 ovarian): 2.69 µM; TGI (SK-OV-3 ovarian): 14 µM; GI50 (SN12C renal): 2.07 µM; TGI (SN12C renal): 6.96 µM; GI50 (SNB-19 CNS): 8.33 µM; TGI (SNB-19 CNS): 29.3 µM; GI50 (SNB-75 CNS): 1.14 µM; TGI (SNB-75 CNS): 3.57 µM; GI50 (SR leukemia): 0.18 µM; TGI (SR leukemia): 0.336 µM; GI50 (SW-620 colon): 0.644 µM; TGI (SW-620 colon): 14.4 µM; GI50 (T-47D breast): 0.651 µM; TGI (T-47D breast): 14.3 µM; GI50 (TK-10 renal): 2.49 µM; TGI (TK-10 renal): 20.1 µM; GI50 (U251 glioblastoma): 5.48 µM; TGI (U251 glioblastoma): 19.4 µM; GI50 (UACC-257 melanoma): 0.694 µM; TGI (UACC-257 melanoma): 16.4 µM; GI50 (UACC-62 melanoma): 1.75 µM; TGI (UACC-62 melanoma): 15.7 µM; GI50 (UO-31 renal): 3.75 µM; TGI (UO-31 renal): 18.2 µM
